Test results published in patent publication US11299487B2, “Compounds and compositions as modulators of TLR signaling” (Neuropore Therapies, Inc., priority 2019, dated 2022).

What was measured:
human TLR2 [1] = target: T1, human TLR2 (Homo sapiens, UniProt O60603); assay: HEK-Blue hTLR2 antagonism assay (SEAP reporter) with agonist Pam2CSK4 (TLR2/6 agonist); type: cell-based; settings: HEK-Blue hTLR2 cells, ~3×EC50 Pam2CSK4, 18 h, SEAP OD 655 nm, 8-point dilutions
T1 construct: host or cells: HEK-Blue hTLR2 (HEK-293)
T1 sequence (O60603 21-784): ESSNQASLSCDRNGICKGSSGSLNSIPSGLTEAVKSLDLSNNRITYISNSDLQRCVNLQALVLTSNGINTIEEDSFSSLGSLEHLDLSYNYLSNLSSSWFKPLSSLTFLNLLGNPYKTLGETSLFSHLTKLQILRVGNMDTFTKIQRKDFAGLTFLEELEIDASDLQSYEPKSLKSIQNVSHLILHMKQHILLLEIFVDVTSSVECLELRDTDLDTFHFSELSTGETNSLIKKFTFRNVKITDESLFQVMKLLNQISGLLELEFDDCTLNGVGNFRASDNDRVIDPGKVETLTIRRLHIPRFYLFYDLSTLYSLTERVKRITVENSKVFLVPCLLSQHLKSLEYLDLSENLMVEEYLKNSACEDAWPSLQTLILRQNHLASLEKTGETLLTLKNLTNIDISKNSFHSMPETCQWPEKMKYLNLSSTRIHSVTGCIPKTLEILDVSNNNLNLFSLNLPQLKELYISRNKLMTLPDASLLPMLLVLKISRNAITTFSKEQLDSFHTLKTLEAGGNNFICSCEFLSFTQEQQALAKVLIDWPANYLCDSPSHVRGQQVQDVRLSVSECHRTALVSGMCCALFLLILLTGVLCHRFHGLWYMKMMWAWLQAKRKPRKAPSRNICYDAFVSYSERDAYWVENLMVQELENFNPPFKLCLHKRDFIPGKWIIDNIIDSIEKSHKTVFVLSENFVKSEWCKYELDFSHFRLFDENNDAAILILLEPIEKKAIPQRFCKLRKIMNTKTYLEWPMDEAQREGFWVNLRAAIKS
Description: (§1) Synthetic diacylated lipoprotein (Pam2CSK4, TLR2/6 agonist) and synthetic triacylated lipoprotein (Pam3CSK4, TLR1/2 agonist) were obtained from InvivoGen and were dissolved in endotoxin-free water to a concentration 1 mg/mL, vortexed until complete solubilization, and stored in aliquots at −20° C. Prior to addition to cells, an aliquot of the dissolved ligand was vortexed shortly and then was diluted in medium to 25 ng/mL Pam2CSK4 or 1000 ng/mL Pam3CSK4.
(§2) Test compounds were solubilized fresh to 10-20 mM stocks in DMSO and sonicated for 5-10 minutes in a water bath sonicator. Serial dilutions were prepared in DMSO, and then diluted in medium. The final concentration of DMSO used in the assay was 1%.
(§3) HEK-Blue hTLR2 reporter cells (InvivoGen) are HEK-293 cells stably expressing both the human TLR2 gene and a secreted embryonic alkaline phosphatase (SEAP) reporter construct downstream of NFκB promotor sites. HEK-Blue hTLR2 reporters were cultured according to manufacturer's protocol using Dulbecco's Modified Eagle Medium (DMEM; Gibco) containing 1× GlutaMax (Gibco), 10% heat-inactivated Fetal Bovine Serum (Gibco), Pen-Strep (50 U/mL penicillin, 50 μg/mL streptomycin, Gibco), 100 μg/mL Normocin (InvivoGen), and the selective antibiotic, 1×HEK-Blue Selection (InvivoGen). Quanti-Blue reagent (InvivoGen) for detection and quantification of secreted alkaline phosphatase was dissolved in 100 mL of endotoxin-free water, warmed to 37° C. for 30 minutes and then filtered using a 0.2 μm membrane.
(§4) On day 1, 50 μL of each test compound dilution in duplicates or a vehicle control was added to each well of a 96-well plate followed by addition of 150 μL of HEK-Blue hTLR2 cell suspension (1×10^5 cells/well) and incubated at 37° C./5% CO2 for 2 h. Next, 50 μL of an approximate 3×EC50 concentration of each agonist (Pam2CSK4 or Pam3CSK4) was added to the wells containing test compounds or the vehicle control. The plates were then incubated at 37° C./5% CO2 for 18 h. For each assay run, non-treated HEK-Blue hTLR2 cells were treated with serial dilutions of agonists to determine EC50 values for the respective run.
(§5) On day 2, secreted alkaline phosphatase (SEAP) activity was detected in cell culture supernatants. In brief, 20 μL was collected from each well and transferred to a 96-well plate. Next, 200 μL of Quanti-Blue detection reagent was added to each well. Plates were incubated at room temperature for 15 min. and SEAP activity was assessed by spectrophotometer OD reading at 655 nm. […] IC50 values were calculated based on 8-point dilutions for each compound.

human TLR2 [2] = target: T1, human TLR2; assay: HEK-Blue hTLR2 antagonism assay (SEAP reporter) with agonist Pam3CSK4 (TLR1/2 agonist); type: cell-based; settings: HEK-Blue hTLR2 cells, ~3×EC50 Pam3CSK4, 18 h, SEAP OD 655 nm, 8-point dilutions
Description: as §1, §2, §3, §4, §5

Structure (SMILES): Cc1nc(-c2cccc(N3CCCC3)c2)sc1-c1cc(F)c(O)c(C=O)c1 [Compound A103, 3-fluoro-2-hydroxy-5-(4-methyl-2-(3-(pyrrolidin-1-yl)phenyl)thiazol-5-yl)benzaldehyde]
- IC50 (human TLR2 [1]; Table A): 3.9 µM
- IC50 (human TLR2 [2]; Table A): 1.3 µM

Structure (SMILES): O=Cc1cc(-c2csc(-c3ccc(N4CCCCC4)nc3)n2)cc(F)c1O [Compound A126, 3-fluoro-2-hydroxy-5-(2-(6-(piperidin-1-yl)pyridin-3-yl)thiazol-4-yl)benzaldehyde]
- IC50 (human TLR2 [1]; Table A): 1.1 µM
- IC50 (human TLR2 [2]; Table A): 0.6 µM

Structure (SMILES): O=Cc1cc(C(=O)Nc2ccc(N3C[C@H]4CCC[C@H]4C3)nc2)cc(F)c1O [Compound B103, 3-fluoro-5-formyl-N-(6-((3aR,6aS)-hexahydrocyclopenta[c]pyrrol-2(1H)-yl)pyridin-3-yl)-4-hydroxybenzamide]
- IC50 (human TLR2 [1]; Table B): 1.7 µM
- IC50 (human TLR2 [2]; Table B): 1 µM

Structure (SMILES): Oc1c(F)cc(-c2cnn(-c3ccc(N4CCCC4)cc3)c2)cc1/C=N/N1CCOCC1 [Compound A37, (E)-2-fluoro-6-((morpholinoimino)methyl)-4-(1-(4-(pyrrolidin-1-yl)phenyl)-1H-pyrazol-4-yl)phenol]
- IC50 (human TLR2 [1]; Table A): > 100 µM
- IC50 (human TLR2 [2]; Table A): > 100 µM

Structure (SMILES): O=Cc1cc(-c2cnc(-c3ccccc3)s2)ncc1O [Compound A99, 5-hydroxy-2-(2-phenylthiazol-5-yl)isonicotinaldehyde]
- IC50 (human TLR2 [1]; Table A): 3.3 µM
- IC50 (human TLR2 [2]; Table A): 2.2 µM

Structure (SMILES): O=Cc1c(O)cc(C#Cc2ccc(N3CCOCC3)cc2)cc1F [Compound B6, 2-fluoro-6-hydroxy-4-((4-morpholinophenyl)ethynyl)benzaldehyde]
- IC50 (human TLR2 [1]; Table B): 3.8 µM
- IC50 (human TLR2 [2]; Table B): 1.8 µM

Structure (SMILES): O=Cc1cc(C(=O)Nc2ccc(N3CCC(N4CCCC4)CC3)cc2)cc(F)c1O [Compound B84, 3-fluoro-5-formyl-4-hydroxy-N-(4-(4-(pyrrolidin-1-yl)piperidin-1-yl)phenyl)benzamide]
- IC50 (human TLR2 [1]; Table B): 33.9 µM
- IC50 (human TLR2 [2]; Table B): 14.3 µM

Structure (SMILES): O=Cc1cc(-c2ccn(-c3cccc(N4CCCCC4)c3)n2)cc(F)c1O [Compound A31, 3-fluoro-2-hydroxy-5-(1-(3-(piperidin-1-yl)phenyl)-1H-pyrazol-3-yl)benzaldehyde]
- IC50 (human TLR2 [1]; Table A): 3.4 µM
- IC50 (human TLR2 [2]; Table A): 6.2 µM

Structure (SMILES): O=Cc1cc(C(=O)Nc2cnc(N3CCCC3)nc2)cc(F)c1O [Compound B59, 3-fluoro-5-formyl-4-hydroxy-N-(2-(pyrrolidin-1-yl)pyrimidin-5-yl)benzamide]
- IC50 (human TLR2 [1]; Table B): 32.7 µM
- IC50 (human TLR2 [2]; Table B): 19.8 µM

Structure (SMILES): Oc1c(F)cc(-c2cnn(-c3ccc(N4CCCC4)cc3)c2)cc1/C=N/Oc1ccccc1 [Compound A40, (E)-3-fluoro-2-hydroxy-5-(1-(4-(pyrrolidin-1-yl)phenyl)-1H-pyrazol-4-yl)benzaldehyde O-phenyl Oxime]
- IC50 (human TLR2 [1]; Table A): 7.2 µM
- IC50 (human TLR2 [2]; Table A): 2.7 µM

Structure (SMILES): COc1cc(C#Cc2ccc(N3CCOCC3)cc2)cc(C=O)c1O [Compound B8, 2-hydroxy-3-methoxy-5-((4-morpholinophenyl)ethynyl)benzaldehyde]
- IC50 (human TLR2 [1]; Table B): 2.9 µM
- IC50 (human TLR2 [2]; Table B): 1.6 µM

Structure (SMILES): O=Cc1cc(C#Cc2ccc(C(=O)NC3CC3)cc2)cc(F)c1O [Compound B80, N-cyclopropyl-4-((3-fluoro-5-formyl-4-hydroxyphenyl)ethynyl)benzamide]
- IC50 (human TLR2 [1]; Table B): 15.5 µM
- IC50 (human TLR2 [2]; Table B): 35.9 µM

Structure (SMILES): Cn1cc(-c2ccc(NC(=O)c3cc(F)c(O)c(C=O)c3)cc2)cn1 [Compound B63, 3-fluoro-5-formyl-4-hydroxy-N-(4-(1-methyl-1H-pyrazol-4-yl)phenyl)benzamide]
- IC50 (human TLR2 [1]; Table B): 30.1 µM
- IC50 (human TLR2 [2]; Table B): 11.3 µM

Structure (SMILES): COc1cc(-c2cnn(Cc3ccccc3)c2)cc(C=O)c1O [Compound A4, 5-(1-benzyl-1H-pyrazol-4-yl)-2-hydroxy-3-methoxybenzaldehyde]
- IC50 (human TLR2 [1]; Table A): 8.5 µM
- IC50 (human TLR2 [2]; Table A): 10.5 µM

Structure (SMILES): O=Cc1c(O)cc(C#Cc2ccc(N3CCCCC3)cc2)cc1F [Compound B5, 2-fluoro-6-hydroxy-4-((4-(piperidin-1-yl)phenyl)ethynyl)benzaldehyde]
- IC50 (human TLR2 [1]; Table B): 1.9 µM
- IC50 (human TLR2 [2]; Table B): 1.1 µM

Structure (SMILES): O=Cc1cc(-c2cnc(-c3cccc(N4CCCC4)c3)s2)cc(F)c1O [Compound A101, 3-fluoro-2-hydroxy-5-(2-(3-(pyrrolidin-1-yl)phenyl)thiazol-5-yl)benzaldehyde]
- IC50 (human TLR2 [1]; Table A): 3.2 µM
- IC50 (human TLR2 [2]; Table A): 1 µM

Structure (SMILES): O=Cc1cc(-c2ccn(-c3cccc(N4CCOCC4)c3)n2)cc(F)c1O [Compound A32, 3-fluoro-2-hydroxy-5-(1-(3-morpholinophenyl)-1H-pyrazol-3-yl)benzaldehyde]
- IC50 (human TLR2 [1]; Table A): 12.7 µM
- IC50 (human TLR2 [2]; Table A): 17.4 µM

Structure (SMILES): O=Cc1cc(-c2cnn(-c3cccc(N4CCCCC4)c3)c2)cc(F)c1O [Compound A23, 3-fluoro-2-hydroxy-5-(1-(3-(piperidin-1-yl)phenyl)-1H-pyrazol-4-yl)benzaldehyde]
- IC50 (human TLR2 [1]; Table A): 0.8 µM
- IC50 (human TLR2 [2]; Table A): 0.9 µM

Structure (SMILES): O=Cc1cc(C(=O)Nc2ccc(N3C4CCC3CC4)cc2)cc(F)c1O [Compound B95, N-(4-(7-azabicyclo[2.2.1]heptan-7-yl)phenyl)-3-fluoro-5-formyl-4-hydroxybenzamide]
- IC50 (human TLR2 [1]; Table B): 3.7 µM
- IC50 (human TLR2 [2]; Table B): 2.8 µM

Structure (SMILES): O=Cc1cc(C(=O)Nc2ccc(N3C4CCCC3CC4)cc2)cc(F)c1O [Compound B96, N-(4-(8-azabicyclo[3.2.1]octan-8-yl)phenyl)-3-fluoro-5-formyl-4-hydroxybenzamide]
- IC50 (human TLR2 [1]; Table B): 1.4 µM
- IC50 (human TLR2 [2]; Table B): 1.1 µM

Structure (SMILES): O=Cc1cc(-c2csc(-c3ccc(Cl)cc3)n2)cc(F)c1O [Compound A92, 5-(2-(4-chlorophenyl)thiazol-4-yl)-3-fluoro-2-hydroxybenzaldehyde]
- IC50 (human TLR2 [1]; Table A): 3.5 µM
- IC50 (human TLR2 [2]; Table A): 0.9 µM

Structure (SMILES): COc1cc(-c2cnn(-c3ccc(F)cc3)c2)cc(C=O)c1O [Compound A6, 5-(1-(4-fluorophenyl)-1H-pyrazol-4-yl)-2-hydroxy-3-methoxybenzaldehyde]
- IC50 (human TLR2 [1]; Table A): 14.1 µM
- IC50 (human TLR2 [2]; Table A): 12 µM

Structure (SMILES): O=Cc1cc(C(=O)Nc2ccc(N3CCc4ccccc4C3)cc2)cc(F)c1O [Compound B82, N-(4-(3,4-dihydroisoquinolin-2(1H)-yl)phenyl)-3-fluoro-5-formyl-4-hydroxybenzamide]
- IC50 (human TLR2 [1]; Table B): 1.2 µM
- IC50 (human TLR2 [2]; Table B): 0.7 µM

Structure (SMILES): Cc1nc(-c2ccc(N3CCCC3)nc2)sc1-c1cc(F)c(O)c(C=O)c1 [Compound A104, 3-fluoro-2-hydroxy-5-(4-methyl-2-(6-(pyrrolidin-1-yl)pyridin-3-yl)thiazol-5-yl)benzaldehyde]
- IC50 (human TLR2 [1]; Table A): 6.8 µM
- IC50 (human TLR2 [2]; Table A): 3.9 µM

Structure (SMILES): COc1cc(-c2cnn(C3CCOCC3)c2)cc(C=O)c1O [Compound A5, 2-hydroxy-3-methoxy-5-(1-(tetrahydro-2H-pyran-4-yl)-1H-pyrazol-4-yl)benzaldehyde]
- IC50 (human TLR2 [1]; Table A): > 100 µM
- IC50 (human TLR2 [2]; Table A): > 100 µM

Structure (SMILES): O=Cc1cc(NC(=O)Nc2ccc(F)cc2)cc(F)c1O [Compound B64, 1-(3-fluoro-5-formyl-4-hydroxyphenyl)-3-(4-fluorophenyl)urea]
- IC50 (human TLR2 [1]; Table B): 10.9 µM
- IC50 (human TLR2 [2]; Table B): 8 µM

Structure (SMILES): O=Cc1cc(C(=O)Nc2ccc(N3CCCC3)c(C(F)(F)F)c2)cc(F)c1O [Compound B91, 3-fluoro-5-formyl-4-hydroxy-N-(4-(pyrrolidin-1-yl)-3-(trifluoromethyl)phenyl) benzamide]
- IC50 (human TLR2 [1]; Table B): 2.2 µM
- IC50 (human TLR2 [2]; Table B): 1.6 µM

Structure (SMILES): O=Cc1cc(C(=O)Nc2ccc(N3CCOc4ccccc43)cc2)cc(F)c1O [Compound B90, N-(4-(2,3-dihydro-4H-benzo[b][1,4]oxazin-4-yl)phenyl)-3-fluoro-5-formyl-4-hydroxybenzamide]
- IC50 (human TLR2 [1]; Table B): 2.9 µM
- IC50 (human TLR2 [2]; Table B): 1.9 µM
